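Briefly, cells in 96-well plates were exposed to five compound concentrations for 48 h, and endpoints were estimated by linear interpolation. GI50 marks 50% less growth.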 The source made the active and inactive calls. Cut-off read from the data, not from the text of the source: active = GI50 up to about 1.1 µM and inactive = higher. Residues, ends and D or L forms follow the SMILES beside them. *: point of attachment. Cbz = O=C(OCc1ccccc1)*
Tests used:
Experiment in all cases: NCI anticancer screen, dose series, 48 h
MOLT-4 = tested on: MOLT-4
M14 = tested on: M14
HT-29 = tested on: HT-29
786-0 = tested on: 786-0
SK-MEL-5 = tested on: SK-MEL-5
UACC-62 = tested on: UACC-62
NCI-H460 = tested on: NCI-H460
HOP-92 = tested on: HOP-92
SF-268 = tested on: SF-268
HL-60 = tested on: HL-60
HCT-15 = tested on: HCT-15
PC-3 = tested on: PC-3
A549 = tested on: A549
HCT-116 = tested on: HCT-116
SR = tested on: SR
OVCAR-3 = tested on: OVCAR-3
U-251 = tested on: U-251
CAKI-1 = tested on: CAKI-1
IGROV-1 = tested on: IGROV-1
BT-549 = tested on: BT-549

SMILES | GI50 (MOLT-4) | GI50 (M14) | GI50 (HT-29) | GI50 (786-0) | GI50 (SK-MEL-5) | GI50 (UACC-62) | GI50 (NCI-H460) | GI50 (HOP-92) | GI50 (SF-268) | GI50 (HL-60) | GI50 (HCT-15) [µM] | GI50 (PC-3) | GI50 (A549) | GI50 (HCT-116) | GI50 (SR) | GI50 (OVCAR-3) | GI50 (U-251) | GI50 (CAKI-1) | GI50 (IGROV-1) | GI50 (BT-549)
Cc1ccccc1C1CC(=O)CC(c2ccccc2C)C12C(=O)NC(=S)NC2=O (stereo unspecified) | 42.4 µM (inactive) | 24.3 µM (inactive) | 22.3 µM (inactive) | 34.9 µM (inactive) | 17.2 µM (inactive) | 18.7 µM (inactive) | 19.4 µM (inactive) | 26.1 µM (inactive) | 32.7 µM (inactive) | 21 µM (inactive) | 20.7 | 22.3 µM (inactive) | 29.5 µM (inactive) | 20.5 µM (inactive) | 37.2 µM (inactive) | 29 µM (inactive) | 30.7 µM (inactive) | 58.2 µM (inactive) |  | 
C=CCC(CC=O)(C(=O)OCC)C(=O)OCC | > 100 µM (inactive) | > 100 µM (inactive) | > 100 µM (inactive) | > 100 µM (inactive) | > 100 µM (inactive) | > 100 µM (inactive) | > 100 µM (inactive) | > 100 µM (inactive) | > 100 µM (inactive) | 86.1 µM (inactive) | > 100 | > 100 µM (inactive) | > 100 µM (inactive) | > 100 µM (inactive) | > 100 µM (inactive) | > 100 µM (inactive) | > 100 µM (inactive) | > 100 µM (inactive) | > 100 µM (inactive) | 
Cc1ccc(S(=O)(=O)NC(=O)C2C(=O)CC3(CCCCC3)CC2=O)cc1 | 42.4 µM (inactive) | 34.5 µM (inactive) | 32.7 µM (inactive) | 25.9 µM (inactive) | 25.4 µM (inactive) | 31.3 µM (inactive) | 25.2 µM (inactive) | 14.8 µM (inactive) | 34.8 µM (inactive) | 29.5 µM (inactive) | 23.2 | 25.6 µM (inactive) | 33.3 µM (inactive) | 25.9 µM (inactive) |  | 29 µM (inactive) | 38.4 µM (inactive) | 26.4 µM (inactive) | 29.4 µM (inactive) | 27.5 µM (inactive)
CC1(C)C2CC(O)C1CCC2=O (stereo unspecified) | > 100 µM (inactive) | > 100 µM (inactive) | > 100 µM (inactive) | > 100 µM (inactive) | > 100 µM (inactive) | > 100 µM (inactive) | > 100 µM (inactive) |  | > 100 µM (inactive) | > 100 µM (inactive) | > 100 | > 100 µM (inactive) | > 100 µM (inactive) | > 100 µM (inactive) |  | > 100 µM (inactive) | > 100 µM (inactive) | > 100 µM (inactive) |  | > 100 µM (inactive)
C=C1C(=O)OC2(C)CCC1CC1OC1(C)CCC=C(C)CCC2O (stereo unspecified) | 30.3 µM (inactive) | > 100 µM (inactive) | > 100 µM (inactive) | > 100 µM (inactive) | > 100 µM (inactive) | 61.9 µM (inactive) | 46.9 µM (inactive) | > 100 µM (inactive) | > 100 µM (inactive) | 21.7 µM (inactive) | 69.3 | > 100 µM (inactive) | > 100 µM (inactive) | > 100 µM (inactive) |  | > 100 µM (inactive) | > 100 µM (inactive) | > 100 µM (inactive) | > 100 µM (inactive) | 6.24 µM (inactive)
CC1=CC(=O)/C(=C/NC(=S)Nc2ccccc2)C(=O)O1 | > 100 µM (inactive) | > 100 µM (inactive) | > 100 µM (inactive) | > 100 µM (inactive) | > 100 µM (inactive) | > 100 µM (inactive) | > 100 µM (inactive) | > 100 µM (inactive) | > 100 µM (inactive) | > 100 µM (inactive) | > 100 | > 100 µM (inactive) | > 100 µM (inactive) | > 100 µM (inactive) |  | > 100 µM (inactive) | > 100 µM (inactive) | > 100 µM (inactive) | > 100 µM (inactive) | > 100 µM (inactive)
CCOC(=O)C1=CC(C)(C(=O)OCC)Nc2c(nc(N)[nH]c2=O)N1 (stereo unspecified) | > 10 µM (inactive) | > 10 µM (inactive) | > 10 µM (inactive) | > 10 µM (inactive) | > 10 µM (inactive) |  | > 10 µM (inactive) | > 10 µM (inactive) | > 10 µM (inactive) |  | > 10 | > 10 µM (inactive) | > 10 µM (inactive) | > 10 µM (inactive) |  | > 10 µM (inactive) | > 10 µM (inactive) | > 10 µM (inactive) | > 10 µM (inactive) | 7.31 µM (inactive)
O=C(NC(Cc1ccccc1)(Cc1ccc(O)cn1)C(=O)O)c1ccccc1 (stereo unspecified) | 46.8 µM (inactive) | > 100 µM (inactive) | 42.2 µM (inactive) | > 100 µM (inactive) | > 100 µM (inactive) | > 100 µM (inactive) | > 100 µM (inactive) | 33.8 µM (inactive) | > 100 µM (inactive) | 16.5 µM (inactive) | > 100 | 76.4 µM (inactive) | > 100 µM (inactive) | 58.9 µM (inactive) |  | 63 µM (inactive) | > 100 µM (inactive) | > 100 µM (inactive) | > 100 µM (inactive) | > 100 µM (inactive)
Cc1ccc(/C=C2\CN(C)CC3=C2N=C(S)NC3c2ccc(C)cc2)cc1 (stereo unspecified) |  | 27.3 µM (inactive) | 30.8 µM (inactive) | 21 µM (inactive) | 25.7 µM (inactive) | 36 µM (inactive) | 37.6 µM (inactive) | 18.2 µM (inactive) | 44.4 µM (inactive) | 28.2 µM (inactive) | 31.8 | 32.1 µM (inactive) | 37.2 µM (inactive) | 21.8 µM (inactive) | < 0.01 µM (active) | 22.1 µM (inactive) | 42.8 µM (inactive) | > 100 µM (inactive) | 47.2 µM (inactive) | 
CNc1nc(SC)nc2c1c(N)nn2C | > 100 µM (inactive) | > 100 µM (inactive) | > 100 µM (inactive) | > 100 µM (inactive) | > 100 µM (inactive) | > 100 µM (inactive) | > 100 µM (inactive) | > 100 µM (inactive) | > 100 µM (inactive) |  | > 100 | > 100 µM (inactive) | > 100 µM (inactive) | > 100 µM (inactive) |  | > 100 µM (inactive) | > 100 µM (inactive) | > 100 µM (inactive) | 78 µM (inactive) | > 100 µM (inactive)
CCOC(=O)c1ccc(Nc2nc3ccccc3nc2-c2cccs2)cc1 | 23.6 µM (inactive) |  |  | 50.7 µM (inactive) | 98.6 µM (inactive) | 4.24 µM (inactive) | 34 µM (inactive) |  | 93.5 µM (inactive) | 24.8 µM (inactive) | 25.3 | 24.8 µM (inactive) | 66.4 µM (inactive) | 80.5 µM (inactive) | 26.9 µM (inactive) | 31 µM (inactive) | 97.9 µM (inactive) | 21.9 µM (inactive) | > 100 µM (inactive) | 
Cc1ccc(S(=O)(=O)N/N=C2\CC(C)OC3=C2CCCCCC3)cc1 (stereo unspecified) | 14.6 µM (inactive) | 20.3 µM (inactive) | 17.5 µM (inactive) | 17.1 µM (inactive) | 16.9 µM (inactive) | 14.5 µM (inactive) | > 100 µM (inactive) | 19.6 µM (inactive) | 19.9 µM (inactive) | 23 µM (inactive) |  | 19.2 µM (inactive) | 16.7 µM (inactive) | 16.5 µM (inactive) | 17 µM (inactive) | 19.7 µM (inactive) |  | 25.9 µM (inactive) | 19.1 µM (inactive) | 
COc1ccc2c(c1)nc1n2C(c2c(Cl)cccc2Cl)SC1 (stereo unspecified) | > 21.6 µM (inactive) | 12.4 µM (inactive) | 15.2 µM (inactive) | 21.3 µM (inactive) | 5.02 µM (inactive) | 18.4 µM (inactive) | 12.1 µM (inactive) | > 71.4 µM (inactive) | 20 µM (inactive) |  | 5.81 | > 33.3 µM (inactive) | 18 µM (inactive) | 7.85 µM (inactive) |  | > 20.5 µM (inactive) | 21.4 µM (inactive) | > 60.7 µM (inactive) | 18.1 µM (inactive) | > 67.3 µM (inactive)
CCOC1CCC2C(CCC(/C=C/c3ccc(O)c4ncccc34)N2C)C1 (stereo unspecified) | 3.72 µM (inactive) | 15.4 µM (inactive) | 7.03 µM (inactive) | 6.44 µM (inactive) | 19.7 µM (inactive) | 8.89 µM (inactive) | 7.89 µM (inactive) | 11.7 µM (inactive) | 6.24 µM (inactive) | 3.84 µM (inactive) | 40.8 | 8.75 µM (inactive) | 25.1 µM (inactive) |  | 3.21 µM (inactive) |  | 15.4 µM (inactive) |  | 11.4 µM (inactive) | 
Fc1ccccc1-c1nn2c(C34CC5CC(CC(C5)C3)C4)nnc2s1 | > 100 µM (inactive) | > 100 µM (inactive) | > 100 µM (inactive) | > 100 µM (inactive) | > 100 µM (inactive) | > 100 µM (inactive) | > 100 µM (inactive) | > 100 µM (inactive) | > 100 µM (inactive) |  | > 100 | > 100 µM (inactive) | > 100 µM (inactive) | > 100 µM (inactive) | > 100 µM (inactive) | > 100 µM (inactive) | > 100 µM (inactive) | > 100 µM (inactive) | > 100 µM (inactive) | 
CCOC(=O)CCC(NC(=O)OCc1ccccc1)C(=O)NC(CCC(=O)OCC)C(=O)OCC (stereo unspecified) (Cbz-Glu(OEt)-Glu(OEt)-OEt; configuration not given here) | > 100 µM (inactive) | > 100 µM (inactive) | > 100 µM (inactive) | > 100 µM (inactive) | > 100 µM (inactive) | > 100 µM (inactive) | > 100 µM (inactive) | > 100 µM (inactive) | > 100 µM (inactive) |  | > 100 | > 100 µM (inactive) | > 100 µM (inactive) | > 100 µM (inactive) | > 100 µM (inactive) | > 100 µM (inactive) | > 100 µM (inactive) | > 100 µM (inactive) | > 100 µM (inactive) | 
